Measured values reported in patent publication US20120270237A9, “METHODS FOR THE IDENTIFICATION OF KINASE INTERACTING MOLECULES AND FOR THE PURIFICATION OF KINASE PROTEINS” (Cellzone AG, priority 2009, published 2012).

Columns and labels:
DNAPK = DNAPK (Homo sapiens, UniProt P78527); experiment: Kinobeads competition binding, HL60 cell lysate; design: endogenous in cells; host or cells: HL60 (DSMZ ACC3); settings: 10 μM free compound
Experimental: (§1) To one aliquot of cell lysate 10 μM of the free compound (FIG. 3, CZC31326) was added and allowed to bind to proteins in the lysate. Then the affinity matrix with the immobilized compound (Example 1) was added to capture proteins that were not interacting with the previously added free compound. Beads were separated from the lysate and bead bound proteins were eluted in SDS sample buffer and subsequently separated by SDS-Polyacrylamide gel electrophoresis (FIG. 4). Suitable gel bands were cut out and subjected to in-gel proteolytic digestion with trypsin. The second lysate aliquot was processed identically, however no free compound was added (DMSO solvent control). Peptides originating from samples 1 and 2 were labeled with iTRAQ reagents (iTRAQ 114 and iTRAQ 117) and the combined samples were analyzed with a nano-flow liquid chromatography system coupled online to a tandem mass spectrometer (LC-MS/MS) experiment followed by iTRAQ reporter ion quantification in the MS/MS spectra (Ross et al., 2004. Mol. Cell. Proteomics 3(12):1154-1169). Further experimental protocols can be found in WO2006/134056 and a previous publication (Bantscheff et al., 2007. Nature Biotechnology 25, 1035-1044). Sepharose-beads with the immobilized compound (100 μl beads per pull-down experiment) were equilibrated in lysis buffer and incubated with a cell lysate sample containing 50 mg of protein on an end-over-end shaker (Roto Shake Genie, Scientific Industries Inc.) for 2 hours at 4° C. […] The iTRAQ reagents are a set of multiplexed, amine-specific, stable isotope reagents that can label peptides on amino groups in up to four different biological samples enabling simultaneous identification and quantitation of peptides. […] Relative protein quantitation was performed using peak areas of iTRAQ reporter ion signals essentially as described in an earlier publication (Bantscheff et al., 2007. Nature Biotechnology 25, 1035-1044).

FER = FER (Homo sapiens, UniProt P16591); experiment: Kinobeads competition binding, HL60 cell lysate; design: endogenous in cells; host or cells: HL60 (DSMZ ACC3); settings: 10 μM free compound
Experimental: as §1

LOK = LOK (Homo sapiens, UniProt O94804); experiment: Kinobeads competition binding, HL60 cell lysate; design: Identified kinases with CZC31326 from HL60 lysate; endogenous in cells; host or cells: HL60; settings: 10 μM free compound
Experimental: (§2) To one aliquot of cell lysate 10 μM of the free compound (FIG. 3, CZC31326) was added and allowed to bind to proteins in the lysate. Then the affinity matrix with the immobilized compound (Example 1) was added to capture proteins that were not interacting with the previously added free compound. Beads were separated from the lysate and bead bound proteins were eluted in SDS sample buffer and subsequently separated by SDS-Polyacrylamide gel electrophoresis (FIG. 4). Suitable gel bands were cut out and subjected to in-gel proteolytic digestion with trypsin. The second lysate aliquot was processed identically, however no free compound was added (DMSO solvent control). Peptides originating from samples 1 and 2 were labeled with iTRAQ reagents (iTRAQ 114 and iTRAQ 117) and the combined samples were analyzed with a nano-flow liquid chromatography system coupled online to a tandem mass spectrometer (LC-MS/MS) experiment followed by iTRAQ reporter ion quantification in the MS/MS spectra (Ross et al., 2004. Mol. Cell. Proteomics 3(12):1154-1169). Further experimental protocols can be found in WO2006/134056 and a previous publication (Bantscheff et al., 2007. Nature Biotechnology 25, 1035-1044). Sepharose-beads with the immobilized compound (100 μl beads per pull-down experiment) were equilibrated in lysis buffer and incubated with a cell lysate sample containing 50 mg of protein on an end-over-end shaker (Roto Shake Genie, Scientific Industries Inc.) for 2 hours at 4° C. Beads were collected, transferred to Mobicol-columns (MoBiTech 10055) and washed with 10 ml lysis buffer containing 0.4% NP40 detergent, followed by 5 ml lysis buffer containing 0.2% detergent. To elute bound proteins, 60 μl 2×SDS sample buffer was added to the column. The column was incubated for 30 minutes at 50° C. and the eluate was transferred to a siliconized microfuge tube by centrifugation. Proteins were then alkylated with 108 mM iodoacetamid. Proteins were then separated by SDS-Polyacrylamide electrophoresis (SDS-PAGE). The peptide extracts of samples treated with 10 μM of free compound (CZC31326) and the solvent control (0.5% DMSO) were treated with different variants of the isobaric tagging reagent (iTRAQ Reagents Multiplex Kit, part number 4352135, Applied Biosystems, Foster City, Calif., USA). The iTRAQ reagents are a set of multiplexed, amine-specific, stable isotope reagents that can label peptides on amino groups in up to four different biological samples enabling simultaneous identification and quantitation of peptides. […] Relative protein quantitation was performed using peak areas of iTRAQ reporter ion signals essentially as described in an earlier publication (Bantscheff et al., 2007. Nature Biotechnology 25, 1035-1044).

LRRK2 = LRRK2 (Homo sapiens, UniProt Q5S007); experiment: Kinobeads competition binding, HL60 cell lysate; design: Identified kinases with CZC31326 from HL60 lysate; endogenous in cells; host or cells: HL60; settings: 10 μM free compound
Experimental: as §2

MAP2K1 = MAP2K1 (Homo sapiens, UniProt Q02750); experiment: Kinobeads competition binding, HL60 cell lysate; design: Identified kinases with CZC31326 from HL60 lysate; endogenous in cells; host or cells: HL60; settings: 10 μM free compound
Experimental: as §2

MAP2K3 = MAP2K3 (Homo sapiens, UniProt P46734); experiment: Kinobeads competition binding, HL60 cell lysate; design: Identified kinases with CZC31326 from HL60 lysate; endogenous in cells; host or cells: HL60; settings: 10 μM free compound
Experimental: as §2

JAK1 = JAK1 (Homo sapiens, UniProt P23458); experiment: Kinobeads competition binding, L-363 cell lysate; design: Identified kinases with CZC31326 from L-363 cell lysate; endogenous in cells; host or cells: L-363 (MG132-treated); settings: 10 μM free compound, L-363 lysate
Experimental: (§3) To one aliquot of cell lysate 10 μM of the free compound (FIG. 3, CZC31326) was added and allowed to bind to proteins in the lysate. Then the affinity matrix with the immobilized compound was added to capture proteins that were not interacting with the previously added free compound. Beads were separated from the lysate and bead bound proteins were eluted in SDS sample buffer and subsequently separated by SDS-Polyacrylamide gel electrophoresis (FIG. 8). Suitable gel bands were cut out and subjected to in-gel proteolytic digestion with trypsin. The second lysate aliquot was processed identically, however no free compound was added (DMSO solvent control). Peptides originating from samples 1 and 2 were labeled with iTRAQ reagents (iTRAQ 114 and iTRAQ 117) and the combined samples were analyzed with a nano-flow liquid chromatography system coupled online to a tandem mass spectrometer (LC-MS/MS) experiment followed by iTRAQ reporter ion quantification in the MS/MS spectra as described in Example 2.
(§4) For this experiment the human plasma cell leukaemia line L-363 was used (German Collection of Microorganisms and Cell Cultures, DSMZ number ACC49, Braunschweig, Germany). Cells were treated for three hours with 20 μM of the proteasome inhibitor MG132 (Z-Leu-Leu-Leu-al, Sigma C2211) prior to cell harvesting.

JNK2 = JNK2 (Homo sapiens, UniProt P45984); experiment: Kinobeads competition binding, L-363 cell lysate; design: Identified kinases with CZC31326 from L-363 cell lysate; endogenous in cells; host or cells: L-363 (MG132-treated); settings: 10 μM free compound, L-363 lysate
Experimental: as §3, §4

Chain of LOK (O94804 whole entry): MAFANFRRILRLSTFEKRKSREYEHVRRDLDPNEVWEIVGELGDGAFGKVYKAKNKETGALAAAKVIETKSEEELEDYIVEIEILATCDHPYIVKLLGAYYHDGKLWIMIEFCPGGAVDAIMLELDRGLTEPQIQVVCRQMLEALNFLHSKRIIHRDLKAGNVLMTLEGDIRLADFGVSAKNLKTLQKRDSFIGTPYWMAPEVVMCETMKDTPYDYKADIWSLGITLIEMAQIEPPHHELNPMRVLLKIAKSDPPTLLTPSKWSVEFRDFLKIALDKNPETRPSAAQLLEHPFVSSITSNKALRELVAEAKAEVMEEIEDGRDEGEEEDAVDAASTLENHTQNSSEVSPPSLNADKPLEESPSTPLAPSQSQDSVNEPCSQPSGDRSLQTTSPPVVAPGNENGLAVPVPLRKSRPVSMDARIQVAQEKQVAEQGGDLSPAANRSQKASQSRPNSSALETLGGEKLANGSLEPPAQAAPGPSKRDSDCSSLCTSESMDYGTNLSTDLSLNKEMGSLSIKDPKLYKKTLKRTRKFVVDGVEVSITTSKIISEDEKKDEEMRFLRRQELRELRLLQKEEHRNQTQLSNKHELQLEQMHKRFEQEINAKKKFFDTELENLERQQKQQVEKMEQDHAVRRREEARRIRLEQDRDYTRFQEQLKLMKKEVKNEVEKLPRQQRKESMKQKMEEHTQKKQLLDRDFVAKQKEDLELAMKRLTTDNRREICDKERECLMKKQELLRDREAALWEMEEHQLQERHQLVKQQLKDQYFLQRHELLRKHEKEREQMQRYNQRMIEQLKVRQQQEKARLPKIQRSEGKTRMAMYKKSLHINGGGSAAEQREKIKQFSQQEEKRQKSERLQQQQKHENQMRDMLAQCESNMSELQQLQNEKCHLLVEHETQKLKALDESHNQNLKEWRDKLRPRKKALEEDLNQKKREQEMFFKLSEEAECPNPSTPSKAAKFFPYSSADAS
Chain of FER (P16591 whole entry): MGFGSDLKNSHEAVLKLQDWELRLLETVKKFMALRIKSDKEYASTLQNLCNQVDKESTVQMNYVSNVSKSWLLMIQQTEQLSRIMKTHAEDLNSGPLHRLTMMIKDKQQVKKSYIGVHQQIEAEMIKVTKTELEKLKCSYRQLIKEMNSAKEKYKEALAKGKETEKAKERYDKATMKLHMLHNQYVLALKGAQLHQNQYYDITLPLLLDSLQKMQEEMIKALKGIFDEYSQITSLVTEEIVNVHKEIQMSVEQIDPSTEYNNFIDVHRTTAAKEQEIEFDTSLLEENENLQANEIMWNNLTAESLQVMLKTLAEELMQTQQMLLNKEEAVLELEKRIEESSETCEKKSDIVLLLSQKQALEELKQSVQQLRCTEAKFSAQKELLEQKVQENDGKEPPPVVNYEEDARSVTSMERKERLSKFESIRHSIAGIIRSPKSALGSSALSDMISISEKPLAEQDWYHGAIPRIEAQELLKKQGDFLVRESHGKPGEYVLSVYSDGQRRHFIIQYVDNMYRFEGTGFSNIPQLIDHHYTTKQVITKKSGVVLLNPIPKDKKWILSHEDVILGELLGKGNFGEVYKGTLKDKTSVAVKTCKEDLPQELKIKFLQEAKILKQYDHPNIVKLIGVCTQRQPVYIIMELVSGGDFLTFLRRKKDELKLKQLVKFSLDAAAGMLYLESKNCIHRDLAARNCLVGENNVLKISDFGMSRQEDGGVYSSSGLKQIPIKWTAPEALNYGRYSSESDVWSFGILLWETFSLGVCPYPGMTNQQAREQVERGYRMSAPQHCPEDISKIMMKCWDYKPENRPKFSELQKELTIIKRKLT
Chain of MAP2K1 (Q02750 whole entry): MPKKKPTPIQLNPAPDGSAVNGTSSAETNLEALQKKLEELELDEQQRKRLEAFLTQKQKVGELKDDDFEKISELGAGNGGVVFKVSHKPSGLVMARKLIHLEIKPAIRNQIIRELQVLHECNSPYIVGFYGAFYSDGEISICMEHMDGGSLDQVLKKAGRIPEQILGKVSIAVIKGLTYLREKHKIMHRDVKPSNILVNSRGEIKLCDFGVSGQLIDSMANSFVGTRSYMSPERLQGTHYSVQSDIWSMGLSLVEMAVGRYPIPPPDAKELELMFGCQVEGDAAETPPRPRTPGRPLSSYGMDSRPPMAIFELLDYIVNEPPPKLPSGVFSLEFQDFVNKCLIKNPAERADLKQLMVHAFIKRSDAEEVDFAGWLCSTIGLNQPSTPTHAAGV
Chain of MAP2K3 (P46734 whole entry): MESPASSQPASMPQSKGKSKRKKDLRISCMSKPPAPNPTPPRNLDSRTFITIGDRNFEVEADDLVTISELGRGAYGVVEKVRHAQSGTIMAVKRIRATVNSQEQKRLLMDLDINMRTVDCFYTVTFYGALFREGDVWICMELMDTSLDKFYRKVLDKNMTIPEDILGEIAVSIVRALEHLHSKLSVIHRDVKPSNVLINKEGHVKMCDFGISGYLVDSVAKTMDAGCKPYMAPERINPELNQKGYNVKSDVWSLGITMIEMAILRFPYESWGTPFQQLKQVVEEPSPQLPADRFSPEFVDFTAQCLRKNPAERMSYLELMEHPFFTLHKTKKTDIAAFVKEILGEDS
Chain of JNK2 (P45984 whole entry): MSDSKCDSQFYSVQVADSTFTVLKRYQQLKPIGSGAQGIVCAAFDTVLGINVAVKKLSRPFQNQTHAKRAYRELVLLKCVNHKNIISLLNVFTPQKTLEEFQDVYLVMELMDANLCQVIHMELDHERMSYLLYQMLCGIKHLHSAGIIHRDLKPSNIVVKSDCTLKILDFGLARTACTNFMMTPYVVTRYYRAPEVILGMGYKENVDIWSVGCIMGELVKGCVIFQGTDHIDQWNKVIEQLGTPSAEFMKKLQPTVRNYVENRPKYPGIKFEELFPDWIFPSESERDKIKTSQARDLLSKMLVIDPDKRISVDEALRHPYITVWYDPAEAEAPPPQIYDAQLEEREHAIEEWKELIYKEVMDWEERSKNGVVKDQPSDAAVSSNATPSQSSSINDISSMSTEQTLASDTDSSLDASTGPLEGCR
Chain of JAK1 (P23458 whole entry): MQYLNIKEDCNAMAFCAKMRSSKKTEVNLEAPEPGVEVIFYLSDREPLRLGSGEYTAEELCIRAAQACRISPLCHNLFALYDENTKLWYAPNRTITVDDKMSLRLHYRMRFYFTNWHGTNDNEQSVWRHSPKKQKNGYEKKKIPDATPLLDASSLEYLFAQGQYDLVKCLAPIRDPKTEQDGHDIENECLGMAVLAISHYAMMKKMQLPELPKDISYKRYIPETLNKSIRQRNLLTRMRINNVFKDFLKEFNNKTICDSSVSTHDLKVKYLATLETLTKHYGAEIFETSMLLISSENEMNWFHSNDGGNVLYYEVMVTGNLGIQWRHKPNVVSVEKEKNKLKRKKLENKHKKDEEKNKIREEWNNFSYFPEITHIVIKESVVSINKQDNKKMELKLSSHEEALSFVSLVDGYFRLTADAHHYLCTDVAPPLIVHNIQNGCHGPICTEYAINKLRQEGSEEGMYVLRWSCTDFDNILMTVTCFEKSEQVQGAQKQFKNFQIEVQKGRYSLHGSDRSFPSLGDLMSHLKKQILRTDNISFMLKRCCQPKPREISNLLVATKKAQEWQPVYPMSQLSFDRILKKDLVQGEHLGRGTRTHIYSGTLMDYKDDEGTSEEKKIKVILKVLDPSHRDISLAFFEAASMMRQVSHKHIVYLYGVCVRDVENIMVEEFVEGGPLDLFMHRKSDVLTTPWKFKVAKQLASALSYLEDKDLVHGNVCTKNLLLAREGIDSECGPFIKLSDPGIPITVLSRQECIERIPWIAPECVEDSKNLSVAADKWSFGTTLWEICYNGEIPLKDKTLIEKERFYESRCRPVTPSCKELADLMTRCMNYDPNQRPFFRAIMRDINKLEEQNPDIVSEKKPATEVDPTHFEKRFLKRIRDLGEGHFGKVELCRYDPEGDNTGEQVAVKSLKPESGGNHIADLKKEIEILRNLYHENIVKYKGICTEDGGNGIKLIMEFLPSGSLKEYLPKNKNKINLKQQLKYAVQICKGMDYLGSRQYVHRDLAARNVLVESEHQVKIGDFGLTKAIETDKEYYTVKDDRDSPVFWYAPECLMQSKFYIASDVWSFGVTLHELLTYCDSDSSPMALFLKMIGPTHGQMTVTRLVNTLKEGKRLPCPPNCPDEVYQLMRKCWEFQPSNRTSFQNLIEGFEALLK

Compound: CS(=O)(=O)Nc1ccccc1Nc1nc(Nc2cccc(OCCN)c2)ncc1Cl [CZC31326, N-(2-(2-(3-(2-aminoethoxy)phenylamino)-5-chloropyrimidin-4-ylamino)phenyl)methanesulfonamide]
- inhibition at 10 µM (DNAPK): 75.5%
- inhibition at 10 µM (FER): 97.7%
- Competition % (LOK): 95.3%
- inhibition at 10 µM (LRRK2): 71.7%
- inhibition at 10 µM (MAP2K1): 85.2%
- inhibition at 10 µM (MAP2K3): 90.9%
- Competition % (JAK1): 97.2%
- Competition % (JNK2): 88%
